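GI50 is the concentration that inhibits growth by half. TGI: concentration producing complete growth inhibition.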
How the values were obtained:
Test in all cases: NCI-60 cell line screen, 384-well format
A549 NSCLC = system: A549 NSCLC
ACHN renal = system: ACHN renal
BT-549 breast = system: BT-549 breast
CCRF-CEM leukemia = system: CCRF-CEM leukemia
COLO 205 colon = system: COLO 205 colon
EKVX NSCLC = system: EKVX NSCLC
HCC-2998 colon = system: HCC-2998 colon
HCT-116 colon = system: HCT-116 colon
HCT-15 colon = system: HCT-15 colon
HOP-62 NSCLC = system: HOP-62 NSCLC
HT29 colon = system: HT29 colon
IGROV1 ovarian = system: IGROV1 ovarian
K-562 leukemia = system: K-562 leukemia
KM12 colon = system: KM12 colon
LOX IMVI melanoma = system: LOX IMVI melanoma
M14 melanoma = system: M14 melanoma
MALME-3M melanoma = system: MALME-3M melanoma
MCF7 breast = system: MCF7 breast
MDA-MB-231 breast = system: MDA-MB-231 breast
MDA-MB-435 melanoma = system: MDA-MB-435 melanoma
MDA-MB-468 breast = system: MDA-MB-468 breast
NCI-H226 lung = system: NCI-H226 lung
NCI-H460 NSCLC = system: NCI-H460 NSCLC
NCI-H522 lung = system: NCI-H522 lung
NCI/ADR-RES ovarian = system: NCI/ADR-RES ovarian
OVCAR-3 ovarian = system: OVCAR-3 ovarian
OVCAR-4 ovarian = system: OVCAR-4 ovarian
OVCAR-5 ovarian = system: OVCAR-5 ovarian
OVCAR-8 ovarian = system: OVCAR-8 ovarian
PC-3 prostate = system: PC-3 prostate
RPMI-8226 leukemia = system: RPMI-8226 leukemia
SF-268 CNS = system: SF-268 CNS
SF-295 CNS = system: SF-295 CNS
SF-539 CNS = system: SF-539 CNS
SK-MEL-2 melanoma = system: SK-MEL-2 melanoma
SK-MEL-28 melanoma = system: SK-MEL-28 melanoma
SK-MEL-5 melanoma = system: SK-MEL-5 melanoma
SK-OV-3 ovarian = system: SK-OV-3 ovarian
SNB-19 CNS = system: SNB-19 CNS
SNB-75 CNS = system: SNB-75 CNS
SR leukemia = system: SR leukemia
SW-620 colon = system: SW-620 colon
T-47D breast = system: T-47D breast
TK-10 renal = system: TK-10 renal
UACC-257 melanoma = system: UACC-257 melanoma
UACC-62 melanoma = system: UACC-62 melanoma
UO-31 renal = system: UO-31 renal

CCCS(=O)(=O)Nc1ccc(F)c(C(=O)c2c[nH]c3ncc(-c4ccc(Cl)cc4)cc23)c1F was tested, and the GI50 (A549 NSCLC) was 3.99 µM, the TGI (A549 NSCLC) was 10.8 µM and the GI50 (ACHN renal) was 5.39 µM. For the same compound, the TGI (ACHN renal) was 19.5 µM, the GI50 (BT-549 breast) was 5.9 µM and the TGI (BT-549 breast) was 19.2 µM. For the same compound, the GI50 (CCRF-CEM leukemia) was 4.15 µM, the TGI (CCRF-CEM leukemia) was 6.41 µM and the GI50 (COLO 205 colon) was 0.0425 µM. It also gave a TGI (COLO 205 colon) of 1.18 µM, a GI50 (EKVX NSCLC) of 7 µM and a TGI (EKVX NSCLC) of 12.7 µM. It also gave a GI50 (HCC-2998 colon) of 0.593 µM, a TGI (HCC-2998 colon) of 1.96 µM and a GI50 (HCT-116 colon) of 3.85 µM. It also gave a TGI (HCT-116 colon) of 11.5 µM, a GI50 (HCT-15 colon) of 5.83 µM and a TGI (HCT-15 colon) of 13.5 µM. For the same compound, the GI50 (HOP-62 NSCLC) was 5.12 µM, the TGI (HOP-62 NSCLC) was 14.9 µM and the GI50 (HT29 colon) was 0.146 µM. For the same compound, the TGI (HT29 colon) was 10.4 µM, the GI50 (IGROV1 ovarian) was 1.87 µM and the TGI (IGROV1 ovarian) was 8.76 µM. For the same compound, the GI50 (K-562 leukemia) was 1.66 µM, the TGI (K-562 leukemia) was 3.43 µM and the GI50 (KM12 colon) was 4.11 µM. It also gave a TGI (KM12 colon) of 13.1 µM, a GI50 (LOX IMVI melanoma) of 3.93 µM and a TGI (LOX IMVI melanoma) of 11.6 µM. It also gave a GI50 (M14 melanoma) of 0.0305 µM, a TGI (M14 melanoma) of 0.321 µM and a GI50 (MALME-3M melanoma) of 0.0242 µM. The TGI (MALME-3M melanoma) was 0.0897 µM, the GI50 (MCF7 breast) was 6.82 µM and the TGI (MCF7 breast) was 13.3 µM. It also gave a GI50 (MDA-MB-231 breast) of 3.8 µM, a TGI (MDA-MB-231 breast) of 8.85 µM and a GI50 (MDA-MB-435 melanoma) of 0.281 µM. For the same compound, the TGI (MDA-MB-435 melanoma) was 14.6 µM, the GI50 (MDA-MB-468 breast) was 5.74 µM and the TGI (MDA-MB-468 breast) was 9.38 µM. For the same compound, the GI50 (NCI-H226 lung) was 7.95 µM, the TGI (NCI-H226 lung) was 17.2 µM and the GI50 (NCI-H460 NSCLC) was 4.97 µM. It also gave a TGI (NCI-H460 NSCLC) of 13.6 µM, a GI50 (NCI-H522 lung) of 7.93 µM and a TGI (NCI-H522 lung) of 16 µM. It also gave a GI50 (NCI/ADR-RES ovarian) of 9.06 µM, a TGI (NCI/ADR-RES ovarian) of 22.4 µM and a GI50 (OVCAR-3 ovarian) of 8.19 µM. For the same compound, the TGI (OVCAR-3 ovarian) was 16.1 µM, the GI50 (OVCAR-4 ovarian) was 8.45 µM and the TGI (OVCAR-4 ovarian) was 20.6 µM. For the same compound, the GI50 (OVCAR-5 ovarian) was 4.41 µM, the TGI (OVCAR-5 ovarian) was 21.3 µM and the GI50 (OVCAR-8 ovarian) was 7.8 µM. It also gave a TGI (OVCAR-8 ovarian) of 15.7 µM, a GI50 (PC-3 prostate) of 8.55 µM and a TGI (PC-3 prostate) of 21.3 µM. The GI50 (RPMI-8226 leukemia) was 3.38 µM, the TGI (RPMI-8226 leukemia) was 6.5 µM and the GI50 (SF-268 CNS) was 7.88 µM. For the same compound, the TGI (SF-268 CNS) was 15.8 µM, the GI50 (SF-295 CNS) was 3.34 µM and the TGI (SF-295 CNS) was 5.93 µM. For the same compound, the GI50 (SF-539 CNS) was 4.33 µM, the TGI (SF-539 CNS) was 10.5 µM and the GI50 (SK-MEL-2 melanoma) was 0.0758 µM. The TGI (SK-MEL-2 melanoma) was 0.33 µM, the GI50 (SK-MEL-28 melanoma) was 0.0274 µM and the TGI (SK-MEL-28 melanoma) was 0.388 µM. For the same compound, the GI50 (SK-MEL-5 melanoma) was 0.0794 µM, the TGI (SK-MEL-5 melanoma) was 1.81 µM and the GI50 (SK-OV-3 ovarian) was 5.57 µM. The TGI (SK-OV-3 ovarian) was 12 µM, the GI50 (SNB-19 CNS) was 8.27 µM and the TGI (SNB-19 CNS) was 23.4 µM. It also gave a GI50 (SNB-75 CNS) of 5.79 µM, a TGI (SNB-75 CNS) of 13.3 µM and a GI50 (SR leukemia) of 1.67 µM. The TGI (SR leukemia) was 4.22 µM, the GI50 (SW-620 colon) was 4.61 µM and the TGI (SW-620 colon) was 23.3 µM. For the same compound, the GI50 (T-47D breast) was 6.77 µM, the TGI (T-47D breast) was 16.9 µM and the GI50 (TK-10 renal) was 13.5 µM. The TGI (TK-10 renal) was 22.3 µM, the GI50 (UACC-257 melanoma) was 0.347 µM and the GI50 (UACC-62 melanoma) was 0.0345 µM. The TGI (UACC-62 melanoma) was 0.912 µM, the GI50 (UO-31 renal) was 4.74 µM and the TGI (UO-31 renal) was 16.6 µM.

— PubChem BioAssay (NCI)
